The test system of the first assay is Escherichia coli strain ATCC25922. Nature of the assay: standard microdilution assay to determine minimum inhibitory concentrations (MICs). Type of assay: cell-based. Conditions: Escherichia coli strain ATCC25922, microdilution. In a few lines: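 MICs come from CLSI-guided microdilution in 100 μl, run alongside reference-strain performance standards. Values appear as "+" or "−" relative to 16 micrograms/ml, with "N/A" marking missing data.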
Consider `C=CC[C@H](NCCCNC(=N)N)c1ccc(-n2cc3cc(-c4cc(CCC[C@H](C)N)cc(Cl)c4F)[nH]c3nc2=O)cc1` [Compound 472], for which the “E. coli ATCC25922 MIC” value is reported as “+ (a “+” indicates that the compound has an MIC value of 16 micrograms/ml or less)”. `N=C(N)NCCCCc1cc(-c2cc3cn(-c4ccc(CNCCCNC(=N)N)cc4)c(=O)nc3[nH]2)cc(-n2ccnn2)c1` [Compound 56]: the “E. coli ATCC25922 MIC” value is listed as “+ (a “+” indicates that the compound has an MIC value of 16 micrograms/ml or less)”. For the compound `COC(=O)NCCCCc1cc(-c2cc3cn(-c4ccc(CNCCCNC(=N)N)cc4)c(=O)nc3[nH]2)cc(OC(F)(F)F)c1OC` [Compound 45], the “E. coli ATCC25922 MIC” value is “+ (a “+” indicates that the compound has an MIC value of 16 micrograms/ml or less)”. Same read-out and setting: with `CC(C)c1cccc(OCCCN)c1NC(=O)Nc1nc(=O)c(-c2ccc(CNCCCNC(=N)N)cc2)c[nH]1` [Compound 186] the entry was “− (a “−” indicates that the compound has an MIC value greater than 16 micrograms/ml)”; with `C[C@@H](CCCc1cc(SC(F)(F)F)cc(-c2cc3cn(-c4ccc(CNCCCNC(=N)N)cc4)c(=O)nc3[nH]2)c1)N(C)C` [Compound 302], “+ (a “+” indicates that the compound has an MIC value of 16 micrograms/ml or less)”; with `N=C(N)NCCCNCc1ccc(-n2cc3cc(-c4cc(CCCCN)cc(F)c4Cl)[nH]c3nc2=O)cc1` [Compound 37], “+ (a “+” indicates that the compound has an MIC value of 16 micrograms/ml or less)”. Same read-out and setting: next, `CCNCCc1cc(CCCCN)cc(-c2cc3cn(-c4ccc(CNCCCNC(=N)N)cc4)c(=O)nc3[nH]2)c1` [Compound 26]: “+ (a “+” indicates that the compound has an MIC value of 16 micrograms/ml or less)”. Same read-out and setting: next, `CC(N)CCCc1cc(SC(F)(F)F)cc(-c2cc3cn(-c4ccc(C(CCO)NCCCNC(=N)N)cc4)c(=O)nc3[nH]2)c1` (centres unmarked) [Compound 507]: “+ (a “+” indicates that the compound has an MIC value of 16 micrograms/ml or less)”.

Regarding `C[C@H](NCCCNC(=N)N)c1ccc(-n2cc3cc(-c4cc(CCCCN)cc(F)c4Cl)[nH]c3nc2=O)cc1` [Compound 67], the “E. coli ATCC25922 MIC” value is on record as “+ (a “+” indicates that the compound has an MIC value of 16 micrograms/ml or less)”. The same measure, in the same setting: with `NCCCCc1c(F)ccc(-c2cc3cn(-c4ccc(CNCCCN=C(N)N)cc4)c(=O)nc3[nH]2)c1F` [Compound 84] the entry was “+ (a “+” indicates that the compound has an MIC value of 16 micrograms/ml or less)”. Still for that read-out and setting: with `Cc1c(CCCCN)cc(-c2cc3cn(-c4ccc(CNCCCNC(=N)N)cc4)c(=O)nc3[nH]2)cc1[N+](=O)[O-]` [Compound 121] the entry was “+ (a “+” indicates that the compound has an MIC value of 16 micrograms/ml or less)”.

Take `N=C(N)NCCCNCc1c(F)cc(-n2cc3cc(-c4cc(CCCCN)cc(OC(F)(F)F)c4)[nH]c3nc2=O)cc1F` [Compound 52]: the “E. coli ATCC25922 MIC” value was “+ (a “+” indicates that the compound has an MIC value of 16 micrograms/ml or less)”. As to `COc1cccc(OCCCN)c1NC(=O)Nc1nc(=O)c(-c2ccc(CNCCCNC(=N)N)cc2)c[nH]1` [Compound 185], the “E. coli ATCC25922 MIC” value is listed as “− (a “−” indicates that the compound has an MIC value greater than 16 micrograms/ml)”. The same measure, in the same setting: with `C[C@H](N)CCCc1cc(-c2cc3cn(-c4ccc([C@H](C)NCCCNC(=N)N)cc4)c(=O)nc3[nH]2)cc2c1OCCO2` [Compound 469] the entry was “+ (a “+” indicates that the compound has an MIC value of 16 micrograms/ml or less)”.

In the case of `Cc1ccc(CCCCN)cc1-c1cc2cn(-c3ccc(CNCCCNC(=N)N)cc3)c(=O)nc2[nH]1` [Compound 57], the “E. coli ATCC25922 MIC” value was “+ (a “+” indicates that the compound has an MIC value of 16 micrograms/ml or less)”. The same measure, in the same setting: with `CC(C)(N)CCc1cc(-c2cc3cn(-c4ccc(CNCCCNC(=N)N)cc4)c(=O)nc3[nH]2)cc(C(F)(F)F)c1` [Compound 259] the entry was “+ (a “+” indicates that the compound has an MIC value of 16 micrograms/ml or less)”; with `CCc1cc(CCCC(C)N)cc(-c2cc3cn(-c4ccc(CNCCCNC(=N)N)cc4)c(=O)nc3[nH]2)c1F` (centres unmarked) [Compound 301], “+ (a “+” indicates that the compound has an MIC value of 16 micrograms/ml or less)”. In the case of `Cc1cc(CCCCN)cc(-c2cc3cn(-c4ccc(CNCCCNC(=N)N)cc4)c(=O)nc3[nH]2)c1` [Compound 9], the “E. coli ATCC25922 MIC” value is on record as “+ (a “+” indicates that the compound has an MIC value of 16 micrograms/ml or less)”. As to `C[C@H](N)CCCc1cc(OC(F)(F)F)cc(-c2cc3cn(-c4ccc([C@H](C)NCCCNC(=N)N)cc4)c(=O)nc3[nH]2)c1` [Compound 230], the “E. coli ATCC25922 MIC” value is listed as “+ (a “+” indicates that the compound has an MIC value of 16 micrograms/ml or less)”. On the same count and under the same terms, with `CCc1cc(CCCCN)cc(-c2cc3cn(-c4ccc(CNCCCNC(=N)N)cc4)c(=O)nc3[nH]2)c1C(F)(F)F` [Compound 233] the entry was “+ (a “+” indicates that the compound has an MIC value of 16 micrograms/ml or less)”. The same measure, in the same setting: next, `CC(C)c1cc(CCCCN)cc(-c2cc3cn(-c4ccc(CNCCCN=C(N)N)c(F)c4)c(=O)nc3[nH]2)c1` [Compound 77]: “+ (a “+” indicates that the compound has an MIC value of 16 micrograms/ml or less)”; `NCCCCc1cc(OC(F)(F)F)cc(-c2cc3cn(-c4ccc(CNCCCN/C(N)=N\CCCF)cc4)c(=O)nc3[nH]2)c1` [Compound 47]: “+ (a “+” indicates that the compound has an MIC value of 16 micrograms/ml or less)”; `N=C(N)NCCCNCc1ccc(-n2cc3cc(-c4cc(CCCCN)cc(C(F)(F)F)c4C(F)(F)F)[nH]c3nc2=O)cc1` [Compound 293]: “+ (a “+” indicates that the compound has an MIC value of 16 micrograms/ml or less)”. On the same count and under the same terms, next, `N=C(N)NCCCNCc1ccc(-n2cc3cc(-c4cc(Br)c(CC(O)CCN)c(OC(F)(F)F)c4)[nH]c3nc2=O)cc1` (centres unmarked) [Compound 43]: “+ (a “+” indicates that the compound has an MIC value of 16 micrograms/ml or less)”; `CC(N)CCCc1cc(SC(F)(F)F)cc(-c2cc3cn(-c4ccc(C(NCCCNC(=N)N)C(=O)O)cc4)c(=O)nc3[nH]2)c1` (centres unmarked) [Compound 503]: “− (a “−” indicates that the compound has an MIC value greater than 16 micrograms/ml)”. For the compound `CC(NCCCNC(=N)N)c1ccc(-n2cc3cc(-c4cc(CCC5(CN)CC5)cc(Cl)c4F)[nH]c3nc2=O)cc1` (centres unmarked) [Compound 272], the “E. coli ATCC25922 MIC” value is reported as “+ (a “+” indicates that the compound has an MIC value of 16 micrograms/ml or less)”.

The assay is the same for the next values; noted with them: Escherichia coli strain ATCC25922, microdilution; read-out: E. coli ATCC25922 MIC.
On to `C[C@H](N)CCCc1cc(Cl)c(F)c(-c2cc3cn(-c4ccc([C@H](C)NCCCNC(=N)N)cc4)c(=O)nc3[nH]2)c1` [Compound 234], for which the MIC was not above 16 µg/mL.

Staying with this assay, now noted: Escherichia coli strain ATCC25922, standard microdilution assay.
Regarding `C[C@H](N)CCCc1cc(-c2cc3cn(-c4ccc([C@H](C)NCCCNC(=N)N)cc4)c(=O)nc3[nH]2)cc(F)c1F` [Compound 464], the “E. coli ATCC25922 MIC” value is “+ (a “+” indicates that the compound has an MIC value of 16 micrograms/ml or less)”. On the same count and under the same terms, with `CC(N)CCCc1cccc(-c2cc3cn(-c4ccc(CNCCCNC(=N)N)cc4)c(=O)nc3[nH]2)n1` (centres unmarked) [Compound 370] the entry was “+ (a “+” indicates that the compound has an MIC value of 16 micrograms/ml or less)”. Turning to `CCc1cc(CCC[C@H](C)N)nc(-c2cc3cn(-c4ccc([C@H](C)NCCCNC(=N)N)cc4)c(=O)nc3[nH]2)c1` [Compound 388], the “E. coli ATCC25922 MIC” value is given as “+ (a “+” indicates that the compound has an MIC value of 16 micrograms/ml or less)”. Same read-out and setting: with `C[C@H](CCNC(=N)N)NCc1ccc(-n2cc3cc(-c4cc(CC5CC(N)C5)cc(Cl)c4F)[nH]c3nc2=O)cc1` (some centres unmarked) [Compound 334] the entry was “+ (a “+” indicates that the compound has an MIC value of 16 micrograms/ml or less)”. As for `CC(N)CCCc1cccc(-c2cc3cn(-c4ccc(C(C)NCCCNC(=N)N)cc4)c(=O)nc3[nH]2)n1` (centres unmarked) [Compound 369], the “E. coli ATCC25922 MIC” value is “+ (a “+” indicates that the compound has an MIC value of 16 micrograms/ml or less)”. For the compound `CC(C)(N)CCCc1cc(Cl)c(F)c(-c2cc3cn(-c4ccc(CN)cc4)c(=O)nc3[nH]2)c1` [Compound 372], the “E. coli ATCC25922 MIC” value is listed as “− (a “−” indicates that the compound has an MIC value greater than 16 micrograms/ml)”. Turning to `CCc1cc(CCC[C@H](C)N)nc(-c2cc3cn(-c4ccc(CNCCCNC(=N)N)cc4)c(=O)nc3[nH]2)c1` [Compound 387], the “E. coli ATCC25922 MIC” value was “+ (a “+” indicates that the compound has an MIC value of 16 micrograms/ml or less)”. Same read-out and setting: with `CC(N)CCCc1cc(Cl)c(F)c(-c2cc3cn(-c4ccc(C(C)NCCCNC(N)=NCC5(C)COC5)cc4)c(=O)nc3[nH]2)c1` (centres unmarked) [Compound 347] the entry was “+ (a “+” indicates that the compound has an MIC value of 16 micrograms/ml or less)”; with `CN(CCCNC(=N)N)Cc1ccc(-n2cc3cc(-c4cc(CCCCN)cc(C(F)(F)F)c4)[nH]c3nc2=O)cc1` [Compound 338], “+ (a “+” indicates that the compound has an MIC value of 16 micrograms/ml or less)”; with `C[C@H](N)c1ccc(-n2cc3cc(-c4cc(CCCC(C)(C)N)cc(SC(F)(F)F)c4)[nH]c3nc2=O)cc1` [Compound 371], “− (a “−” indicates that the compound has an MIC value greater than 16 micrograms/ml)”.

Regarding `C[C@H](N)CCCc1cc(F)c(F)c(-c2cc3cn(-c4ccc(CNCCCNC(=N)N)cc4)c(=O)nc3[nH]2)c1` [Compound 463], the “E. coli ATCC25922 MIC” value is given as “+ (a “+” indicates that the compound has an MIC value of 16 micrograms/ml or less)”.

Turning to `C[C@H](NCCCNC(=N)N)c1ccc(-n2cc3cc(-c4cc(CC[C@@H](C)N)cc(Cl)c4F)[nH]c3nc2=O)cc1` [Compound 411], the “E. coli ATCC25922 MIC” value was “+ (a “+” indicates that the compound has an MIC value of 16 micrograms/ml or less)”. Regarding `C[C@H](N)c1ccc(-n2cc3cc(-c4cc(CCC5(CN)CC5)cc(SC(F)(F)F)c4)[nH]c3nc2=O)cc1` [Compound 358], the “E. coli ATCC25922 MIC” value is reported as “− (a “−” indicates that the compound has an MIC value greater than 16 micrograms/ml)”. Still for that read-out and setting: with `C[C@H](N)CCCc1cc(-c2cc3cn(-c4ccc(CNCCCNC(=N)N)cc4)c(=O)nc3[nH]2)cc2c1COC2` [Compound 444] the entry was “+ (a “+” indicates that the compound has an MIC value of 16 micrograms/ml or less)”.

A word on the MIC: it is the lowest concentration that inhibits growth of the organism.
